Assay results published in US20230272012A1, “PEPTIDES AND METHODS OF USE” (REALTA LIFE SCIENCES, INC., priority 2020, published 2023).
“Also recorded” adds a separate entry of the source. Bridge positions count the residues as written; N and C are the ends. Square brackets hold non-standard residues; d marks the D form. Peptide text beside a SMILES is read from it. R8 = C=CCCCCCC[C@@](C)(N)C(=O)O; S5 = C=CCCC[C@](C)(N)C(=O)O; Sar = CNCC(=O)O

What was measured:
[1] = assay type: in vivo, rat; conditions: IV in Wistar rats, 20, 200, 400 mg/kg; 0.5-1440 minute
Experimental: Male Wistar rats with indwelling jugular catheters were administered PA-0117, -0127, -0130, and -0133 with groups of three animals receiving 20, 200 and 400 mg/kg of the compound as a single, bolus, IV infusion. A control group of rats received an infusion of saline IV. At various time points after infusion (0.5, 2, 5, 20, 60, 120, 240, 480, 1440 minute) an aliquot of blood was drawn and plasma isolated and frozen at −70° C. pending analysis. Animals were sacrificed after the terminal blood draw and a gross necropsy performed.
PA-0117 could not be analyzed as no functional complement activity was obtained from the plasma samples. […] PA-0117 was analyzed in a C1q target acquisition assay (C1q binding assay) as described in Example 1 (FIG. 9). […] PA-0127 and -0130 levels were determined by coating the plate with the plasma samples and directly detecting the peptides by rabbit antibody raised against PA-0020 (peptide sequence […]; SEQ ID NO: 57) (FIGS. 10B and 11B). […] PA-0133 could not be detected by the available antibodies.
PA-0117: The hemolysis assay results were not useable (few pre-bleeds had any activity, and only a few other random samples had any complement activity). The PK assay for PA-0117 was performed by sandwich ELISA (FIG. 9). PA-0127: The results of the hemolysis assay are discussed herein (see also FIG. 10A). […] PA-0130: The results of the hemolysis assay are discussed herein (see also FIG. 11A). […] PA-0133: The results of the hemolysis assay are discussed herein (FIG. 12).

human neutrophils = experiment: NETosis assay (free DNA, PicoGreen); assay type: cell-based; conditions: peptide 2 mM; neutrophils stimulated with PMA and H2O2
Experimental: Free DNA as a marker for NET formation was measured by PicoGreen as previously described. Briefly, 2.0×10^6 human neutrophils in 96-well plates were stimulated with 12 nM PMA and 0.05% H2O2 in RPMI with or without the indicated peptide variants (2 mM) for 2.5 hr in a 37° C. humified incubator supplemented with 5% CO2, allowing NETosis to occur. Neutrophils in RPMI alone served as a negative control. Fifty units of […] (Fisher) were added to each well to allow for digestion of released extracellular DNA for 10 min at 37° C. The preparation was then aliquoted into an adjacent well and mixed 1:1 with prepared PICO green reagent (Fisher). The fluorescence was then quantified on a BioTek microplate reader at excitation 485 nm/emission 528 nm.

CTLA-4 = molecular target: T1, CTLA-4 (Homo sapiens, UniProt P16410); experiment: Peptide binding to immobilized CTLA-4, ELISA plate-based assay; conditions: increasing amounts of peptide
T1 sequence (P16410 36-223): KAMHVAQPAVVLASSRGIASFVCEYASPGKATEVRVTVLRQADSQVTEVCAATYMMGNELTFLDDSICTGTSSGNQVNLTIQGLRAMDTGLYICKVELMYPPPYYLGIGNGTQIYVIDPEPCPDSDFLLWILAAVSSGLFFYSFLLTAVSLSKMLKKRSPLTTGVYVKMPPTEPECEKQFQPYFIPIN
Experimental: (§1) RLS-0117 was allowed to bind to immobilized CTLA-4, PD-1, PD-L1 on the surface of the plate. Bound C1q served as a positive and control for peptide binding. Increasing amounts of peptides were added to the plates followed by a rabbit polyclonal antibody that recognizes the peptides and then a secondary anti-rabbit antibody conjugated with HRP. The plate was then developed by addition of TMB as the substrate for the colorimetric assay.
(§2) The inventors further evaluated if RLS-0117 could bind to the well characterized checkpoint inhibitor, cytotoxic T-lymphocyte associated protein 4 (CTLA-4 aka CD152). […] Therefore, the pharmaceutical inhibition of CTLA-4 or its ligand has been considered a promising strategy by many cancer researchers and is a therapeutic target in cancer immunotherapy. To ascertain the ability of RLS-0117 to bind CTLA-4, a binding assay was performed in which these proteins were coated on a microtiter plate followed by incubation with increasing amounts of either […]. Plates coated with PD-1, PD-L1 and C1q served as a positive control […].

PD-1 = PD-1 (Homo sapiens, UniProt Q15116); experiment: Peptide binding to immobilized PD-1, ELISA plate-based assay; conditions: increasing amounts of peptide
Chain of PD-1 (Q15116 25-288): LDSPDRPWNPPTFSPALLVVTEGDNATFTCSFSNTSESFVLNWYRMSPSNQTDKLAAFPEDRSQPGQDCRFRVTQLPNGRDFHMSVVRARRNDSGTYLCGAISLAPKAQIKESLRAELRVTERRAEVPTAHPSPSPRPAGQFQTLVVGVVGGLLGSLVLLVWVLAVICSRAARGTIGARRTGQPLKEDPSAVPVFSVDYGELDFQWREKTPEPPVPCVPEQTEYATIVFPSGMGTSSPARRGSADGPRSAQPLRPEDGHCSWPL
Experimental: as §1, §2

PD-L1 = PD-L1 (Homo sapiens, UniProt Q9NZQ7); experiment: Peptide binding to immobilized PD-L1, ELISA plate-based assay; conditions: increasing amounts of peptide
Chain of PD-L1 (Q9NZQ7 19-290): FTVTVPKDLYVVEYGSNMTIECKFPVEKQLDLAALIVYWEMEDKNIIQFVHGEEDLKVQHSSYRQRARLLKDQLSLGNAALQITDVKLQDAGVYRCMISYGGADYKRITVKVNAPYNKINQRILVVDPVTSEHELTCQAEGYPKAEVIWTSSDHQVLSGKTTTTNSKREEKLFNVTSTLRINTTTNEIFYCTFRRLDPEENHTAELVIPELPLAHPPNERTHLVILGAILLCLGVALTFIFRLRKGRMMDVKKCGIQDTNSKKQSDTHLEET
Experimental: as §1, §2

[2] = Total Antioxidant Capacity (TAC) assay; conditions: highest peptide concentration 1.5 mM
Experimental: As previously reported, the TAC (Total Antioxidant Capacity) Assay (Cell Biolabs, Inc, San Diego, Calif.) was used to measure the antioxidant capacity of the PIC1 variants based on the reduction of copper (II) to copper (I). The kit protocol was performed per the manufacturer's recommendations.
The antioxidant properties for the PIC1 variants were evaluated in a Total Antioxidant Capacity (TAC) assay, as previously reported. Total antioxidant activity over a range of peptide concentrations were determined for the stapled and the D-amino acid peptides based on the PA-I8Sar and PA-C9Sar backbones (FIG. 8A-8D), with the activity of the highest peptide concentration reported (1.5 mM) (FIGS. 4A and B, respectively). […] For the D-amino acid variants, there was variation in the amount of antioxidant activity with the peptides having similar, slightly lower and slightly higher levels of total antioxidant capacity. In contrast, stapled peptides (PA-0135 through -0140) as well as combination of stapled and D-amino acid peptides had reduced total antioxidant capacity (FIG. 4A).

| SMILES | peptide level in plasma over time [1] | reduction of free DNA (marker of NETosis) (human neutrophils) | binding to CTLA-4 (CTLA-4) | binding to PD-1 (PD-1) | binding to PD-L1 (PD-L1) | total antioxidant capacity compared with PA-I8Sar [2] | total antioxidant capacity compared with PA-I8Sar ([2]; listed as PA-0015) |
| --- | --- | --- | --- | --- | --- | --- | --- |
| CC[C@H](C)[C@H](N)C(=O)N[C@@H](C)C(=O)N[C@@H](CC(C)C)C(=O)N[C@H](C(=O)N[C@@H](CC(C)C)C(=O)N[C@@H](CCC(=O)O)C(=O)N1CCC[C@H]1C(=O)N(C)CC(=O)N[C@@H](CS)C(=O)N[C@@]1(C)CCCC=CCCC[C@@](C)(C(=O)N[C@@H](C)C(=O)O)NC(=O)[C@H](CCCNC(=N)N)NC(=O)[C@H](CCC(=O)O)NC(=O)[C@H](CCC(N)=O)NC1=O)[C@@H](C)CC [PA-0117, IALILEP(Sar)CS5QERS5A] (H-IALILEP[Sar]C[S5]QER[S5]A-OH; staple 10-14) | detected at early time points at each dose and decreased over time | did not reduce levels of free DNA; also recorded: did not show a reduction in free DNA | bound CTLA-4 | dose-dependent binding | dose-dependent binding | – | – |
| CC[C@H](C)[C@H](N)C(=O)N[C@]1(C)CCCCCCC=CCCC[C@@](C)(C(=O)N[C@@H](CS)C(=O)N[C@@H](CCC(N)=O)C(=O)N[C@@H](CCC(=O)O)C(=O)N[C@@H](CCCNC(=N)N)C(=O)N[C@@H](C)C(=O)N[C@@H](C)C(=O)O)NC(=O)CN(C)C(=O)[C@@H]2CCCN2C(=O)[C@H](CCC(=O)O)NC(=O)[C@H](CC(C)C)NC(=O)[C@H]([C@@H](C)CC)NC(=O)[C@H](CC(C)C)NC1=O [PA-0115, IR8LILEP(Sar)S5CQERAA] (H-I[R8]LILEP[Sar][S5]CQERAA-OH; staple 2-9) | – | – | – | – | – | much less antioxidant activity | reduction in total antioxidant capacity |
